According to patent US20260022142A1, “MACROCYCLIC IMMUNOMODULATORS” (Bristol-Myers Squibb Company, priority 2022, published 2026):
Numbered stars: 1 amine (or outer) side, 2 acyl side, 3 side chain; on linkers, the order of the positions; unused ones are H or OH. Bridge positions count the residues as written; N and C are the ends. Square brackets hold non-standard residues; d marks the D form. Peptide text beside a SMILES is read from it. * marks the point of attachment. ξ: configuration not given here. X9 = O=C([C@H](Cc1cc(F)c(F)cc1F)N[*:1])[*:2]; Bip = N[C@@H](Cc1ccc(-c2ccccc2)cc1)C(=O)O; Phe(3-OMe) = COc1cccc(C[C@H](N)C(=O)O)c1; Ala(2-furyl) = N[C@@H](Cc1ccco1)C(=O)O; Phe(3-Me) = Cc1cccc(C[C@H](N)C(=O)O)c1; Val(3-OH) = CC(C)(O)[C@H](N)C(=O)O; hArg = N=C(N)NCCCC[C@H](N)C(=O)O; 4Pal = N[C@@H](Cc1ccncc1)C(=O)O; Cha = N[C@@H](CC1CCCCC1)C(=O)O; Cit = NC(=O)NCCC[C@H](N)C(=O)O; Thr(3ξ) = CC(O)[C@H](N)C(=O)O; 12Ado = NCCCCCCCCCCCC(=O)O; dDab = NCC[C@@H](N)C(=O)O; Carboxymethyl = O=C(O)C*; Orn = NCCC[C@H](N)C(=O)O; Pra = C#CC[C@H](N)C(=O)O; Aun = NCCCCCCCCCCC(=O)O; Dab = NCC[C@H](N)C(=O)O; Dap = NC[C@H](N)C(=O)O; AEEA = NCCOCCOCC(=O)O

Target: T1, PD-1/PD-L1 interaction (PE-labeled human PD-L1-Ig binding to Jurkat cell line over-expressing human PD-1) (Homo sapiens, UniProt Q15116)
T1 construct: expressed in transfected cells; host or cells: Jurkat
T1 sequence (Q15116 25-288): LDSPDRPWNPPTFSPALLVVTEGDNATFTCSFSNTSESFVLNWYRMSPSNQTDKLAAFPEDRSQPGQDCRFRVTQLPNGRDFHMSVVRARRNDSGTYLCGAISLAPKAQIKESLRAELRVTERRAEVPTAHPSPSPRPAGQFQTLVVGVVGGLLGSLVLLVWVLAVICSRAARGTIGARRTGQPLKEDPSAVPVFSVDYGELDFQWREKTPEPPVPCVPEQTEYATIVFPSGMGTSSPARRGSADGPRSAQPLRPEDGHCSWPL
Test: Jurkat-PD-1 Cell Binding High-Content Screening Assay (CBA)
Format: cell-based
Details: Jurkat cell line over-expressing human PD-1; PE-labeled PD-L1-Ig 20 nM final; read-out: Jurkat hPD1-PDL1 IC50
Outline: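 Jurkat cells over-expressing human PD-1 (8×10^3 per well, DMEM/10% FCS) preincubated with compound 2 h at 37° C, then PE-labeled human PD-L1-Ig (20 nM final) added for 1 h. Cells fixed with paraformaldehyde, Hoechst-stained, and bound fluorescence quantified by high-content imaging.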

| Structure (SMILES) | IC50 [nM] |
| --- | --- |
| Cc1cccc(C[C@@H]2NC(=O)[C@H](CC(=O)O)NC(=O)[C@H](Cc3ccc(OCC(=O)O)cc3)NC(=O)[C@H](CN)NC(=O)CSC[C@@H](C(=O)N[C@@H](CCN)C(=O)NCCOCCOCC(=O)NCCCCCCCCCCC(=O)O)NC(=O)[C@H](CCCN)NC(=O)[C@H](Cc3ccc(O)cc3)NC(=O)[C@H](CC3CCCCC3)NC(=O)[C@H](CCN)NC(=O)[C@@H](CC(C)C)NC(=O)[C@H](CCCN)NC(=O)[C@H](C(C)C)NC(=O)[C@H](Cc3ccc(-c4ccccc4)cc3)NC(=O)[C@H](Cc3ccc(O)cc3)NC2=O)c1 [Compound 2574] ({CH2CO}-[Dap]Y(Carboxymethyl)D[Phe(3-Me)]Y[Bip]V[Orn][dL][Dab][Cha]Y[Orn]C[Dab][AEEA][Aun]-OH; thioether N-14) | 28.3 |
| CC(=O)NCCCC[C@@H]1NC(=O)[C@H](Cc2ccc(-c3ccccc3)cc2)NC(=O)[C@H](Cc2ccc(O)cc2)NC(=O)[C@H](Cc2cccc(C)c2)NC(=O)[C@H](CC(=O)O)NC(=O)[C@H](Cc2ccc(OCC(=O)O)cc2)NC(=O)[C@H](CCN)NC(=O)CSC[C@@H](C(=O)N[C@@H](CCN)C(=O)N[C@@H](CO)C(=O)NCCCCCCCCCCCC(=O)O)NC(=O)[C@H](CCC(=O)O)NC(=O)[C@H](C(C)(C)O)NC(=O)[C@H](CC2CCCCC2)NC(=O)[C@H](CCN)NC(=O)[C@@H](CC(C)C)NC(=O)[C@H](CCCN)NC1=O [Compound 3621] ({CH2CO}-[Dab]Y(Carboxymethyl)D[Phe(3-Me)]Y[Bip]K(Ac)[Orn][dL][Dab][Cha][Val(3-OH)]EC[Dab]S[12Ado]-OH; thioether N-14) | 24.3 |
| CC(C)C[C@H]1NC(=O)[C@H](CCCN)NC(=O)[C@H](Cc2ccc(O)cc2)NC(=O)[C@H](Cc2ccc(-c3ccccc3)cc2)NC(=O)[C@H](Cc2ccc(OCC(=O)O)cc2)NC(=O)[C@H](Cc2cc(F)c(F)cc2F)NC(=O)[C@H](CC(=O)O)NC(=O)[C@H](Cc2ccc(OCC(=O)O)cc2)NC(=O)[C@H](CN)NC(=O)CSC[C@@H](C(=O)N[C@@H](CCN)C(=O)NCCOCCOCC(=O)NCCCCCCCCCCC(=O)O)NC(=O)[C@H](CCCN)NC(=O)[C@H](C(C)C)NC(=O)[C@H](CC2CCCCC2)NC(=O)[C@H](CCN)NC1=O [Compound 1224] ({CH2CO}-[Dap]Y(Carboxymethyl)D[X9]Y(Carboxymethyl)[Bip]Y[Orn][dL][Dab][Cha]V[Orn]C[Dab][AEEA][Aun]-OH; thioether N-14) | 141 |
| Cc1cccc(C[C@@H]2NC(=O)[C@H](CC(=O)O)NC(=O)[C@H](Cc3ccc(OCC(=O)O)cc3)NC(=O)[C@H](CN)NC(=O)CSC[C@@H](C(=O)N[C@@H](CCN)C(=O)NCCCCCCCCCCC(=O)O)NC(=O)[C@H](CO)NC(=O)[C@H](C(C)C)NC(=O)[C@H](CC3CCCCC3)NC(=O)[C@H](CCN)NC(=O)[C@@H](CC(C)C)NC(=O)[C@H](CCCN)NC(=O)[C@H](Cc3ccc(O)cc3)NC(=O)[C@H](Cc3ccc(-c4ccccc4)cc3)NC(=O)[C@H](Cc3ccc(OCC(=O)O)cc3)NC2=O)c1 [Compound 2091] ({CH2CO}-[Dap]Y(Carboxymethyl)D[Phe(3-Me)]Y(Carboxymethyl)[Bip]Y[Orn][dL][Dab][Cha]VSC[Dab][Aun]-OH; thioether N-14) | 26.1 |
| Cc1cccc(C[C@@H]2NC(=O)[C@H](CC(=O)O)NC(=O)[C@H](Cc3ccc(OCC(=O)O)cc3)NC(=O)[C@H](CCCNC(=N)N)NC(=O)CSC[C@@H](C(=O)N[C@@H](CCCN)C(=O)NCCCCCCCCCCC(=O)O)NC(=O)[C@H]([C@@H](C)O)NC(=O)[C@H](C(C)C)NC(=O)[C@H](CC3CCCCC3)NC(=O)[C@H](CCN)NC(=O)[C@@H](CC(C)C)NC(=O)[C@H](CCCNC(N)=O)NC(=O)[C@H](Cc3ccc(OCC(=O)O)cc3)NC(=O)[C@H](Cc3ccc(-c4ccccc4)cc3)NC(=O)[C@H](Cc3ccc(OCC(=O)O)cc3)NC2=O)c1 [Compound 2838] ({CH2CO}-RY(Carboxymethyl)D[Phe(3-Me)]Y(Carboxymethyl)[Bip]Y(Carboxymethyl)[Cit][dL][Dab][Cha]VTC[Orn][Aun]-OH; thioether N-14) | 30.2 |
| Cc1cccc(C[C@@H]2NC(=O)[C@H](CC(=O)O)NC(=O)[C@H](Cc3ccc(OCC(=O)O)cc3)NC(=O)[C@H](CC(N)=O)NC(=O)CSC[C@@H](C(=O)N[C@@H](CCN)C(=O)NCCCCCCCCCCC(=O)O)NC(=O)[C@H](CCCNC(N)=O)NC(=O)[C@H](C(C)C)NC(=O)[C@H](CC3CCCCC3)NC(=O)[C@H](CCN)NC(=O)[C@@H](CC(C)C)NC(=O)[C@H](CCCN)NC(=O)[C@H](Cc3ccc(O)cc3)NC(=O)[C@H](Cc3ccc(-c4ccccc4)cc3)NC(=O)[C@H](C(C)C)NC2=O)c1 [Compound 3378] ({CH2CO}-NY(Carboxymethyl)D[Phe(3-Me)]V[Bip]Y[Orn][dL][Dab][Cha]V[Cit]C[Dab][Aun]-OH; thioether N-14) | 18.1 |
| COc1cccc(C[C@@H]2NC(=O)[C@H](CC(=O)O)NC(=O)[C@H](Cc3ccc(OCC(=O)O)cc3)NC(=O)[C@H](CN)NC(=O)CSC[C@@H](C(=O)N[C@@H](CCN)C(=O)NCCOCCOCC(=O)NCCCCCCCCCCC(=O)O)NC(=O)[C@H](CCCN)NC(=O)[C@H](C(C)C)NC(=O)[C@H](CC3CCCCC3)NC(=O)[C@H](CCN)NC(=O)[C@@H](CC(C)C)NC(=O)[C@H](CCCN)NC(=O)[C@H](Cc3ccc(O)cc3)NC(=O)[C@H](Cc3ccc(-c4ccccc4)cc3)NC(=O)[C@H](Cc3ccc(OCC(=O)O)cc3)NC2=O)c1 [Compound 1001] ({CH2CO}-[Dap]Y(Carboxymethyl)D[Phe(3-OMe)]Y(Carboxymethyl)[Bip]Y[Orn][dL][Dab][Cha]V[Orn]C[Dab][AEEA][Aun]-OH; thioether N-14) | 7.2 |
| COc1ccc(C[C@@H]2NC(=O)[C@H](Cc3ccncc3)NC(=O)CSC[C@@H](C(=O)N[C@@H](CCN)C(=O)NCCCCCCCCCCC(=O)O)NC(=O)[C@H](CO)NC(=O)[C@H](C(C)(C)O)NC(=O)[C@H](CC3CCCCC3)NC(=O)[C@H](CCN)NC(=O)[C@@H](CC(C)C)NC(=O)[C@H](CCCN)NC(=O)[C@H](Cc3ccc(OCC(=O)O)cc3)NC(=O)[C@H](Cc3ccc(-c4ccccc4)cc3)NC(=O)[C@H](Cc3ccc(OCC(=O)O)cc3)NC(=O)[C@H](Cc3cccc(C)c3)NC(=O)[C@H](CC(=O)O)NC2=O)cc1 [Compound 2197] ({CH2CO}-[4Pal]Y(Me)D[Phe(3-Me)]Y(Carboxymethyl)[Bip]Y(Carboxymethyl)[Orn][dL][Dab][Cha][Val(3-OH)]SC[Dab][Aun]-OH; thioether N-14) | 15.1 |
| CC(=O)NCCCC[C@@H]1NC(=O)[C@H](Cc2ccc(OCC(=O)O)cc2)NC(=O)[C@H](Cc2ccc(-c3ccccc3)cc2)NC(=O)[C@H](Cc2ccc(OCC(=O)O)cc2)NC(=O)[C@H](Cc2cccc(C)c2)NC(=O)[C@H](CC(=O)O)NC(=O)[C@H](Cc2ccc(OCC(=O)O)cc2)NC(=O)[C@H](CCCNC(=N)N)NC(=O)CSC[C@@H](C(=O)N[C@@H](CCN)C(=O)NCCCCCCCCCCC(=O)O)NC(=O)[C@H](C(C)O)NC(=O)[C@H](C(C)C)NC(=O)[C@H](CC2CCCCC2)NC(=O)[C@H](CCN)NC(=O)[C@@H](CC(C)C)NC1=O (stereo partly drawn) [Compound 3496] ({CH2CO}-RY(Carboxymethyl)D[Phe(3-Me)]Y(Carboxymethyl)[Bip]Y(Carboxymethyl)K(Ac)[dL][Dab][Cha]V[Thr(3ξ)]C[Dab][Aun]-OH; thioether N-14) | 11 |

The next lines start with the values.

| IC50 [nM] | Structure (SMILES) |
| --- | --- |
| 78.2 | CC(C)C[C@H]1NC(=O)[C@H](CCCN)NC(=O)[C@H](Cc2ccc(O)cc2)NC(=O)[C@H](Cc2ccc(-c3ccccc3)cc2)NC(=O)[C@H](C(C)C)NC(=O)[C@H](Cc2c[nH]c3ccccc23)NC(=O)[C@H](CC(=O)O)NC(=O)[C@H](Cc2ccc(OCC(=O)O)cc2)NC(=O)[C@H](C(C)O)NC(=O)CSC[C@@H](C(=O)N[C@H](CCN)C(=O)NCCCCCCCCCCC(=O)O)NC(=O)[C@H](Cc2ccco2)NC(=O)[C@H](C(C)C)NC(=O)[C@H](CC2CCCCC2)NC(=O)[C@H](CCN)NC1=O (stereo partly drawn) [Compound 3422] ({CH2CO}-[Thr(3ξ)]Y(Carboxymethyl)DWV[Bip]Y[Orn][dL][Dab][Cha]V[Ala(2-furyl)]C[dDab][Aun]-OH; thioether N-14) |
| 46.7 | CC(C)C[C@H]1NC(=O)[C@H](CCCN)NC(=O)[C@H](C(C)C)NC(=O)[C@H](Cc2ccc(-c3ccccc3)cc2)NC(=O)[C@H](C(C)C)NC(=O)[C@H](Cc2c[nH]c3ccccc23)NC(=O)[C@H](CC(=O)O)NC(=O)[C@H](Cc2ccc(OCC(=O)O)cc2)NC(=O)[C@H](CCCCNC(=N)N)NC(=O)CSC[C@@H](C(=O)N[C@@H](CN)C(=O)NCCCCCCCCCCC(=O)O)NC(=O)[C@H](C(C)O)NC(=O)[C@H](C(C)C)NC(=O)[C@H](CC2CCCCC2)NC(=O)[C@H](Cc2cnc[nH]2)NC1=O (stereo partly drawn) [Compound 3152] ({CH2CO}-[hArg]Y(Carboxymethyl)DWV[Bip]V[Orn][dL]H[Cha]V[Thr(3ξ)]C[Dap][Aun]-OH; thioether N-14) |
| 14.6 | CC(C)C[C@H]1NC(=O)[C@H](CCCN)NC(=O)[C@H](C(C)C)NC(=O)[C@H](Cc2ccc(-c3ccccc3)cc2)NC(=O)[C@H](C(C)C)NC(=O)[C@H](Cc2c[nH]c3ccccc23)NC(=O)[C@H](CC(=O)O)NC(=O)[C@H](Cc2ccc(OCC(=O)O)cc2)NC(=O)[C@H](Cc2c[nH]cn2)NC(=O)CSC[C@@H](C(=O)N[C@H](C)C(=O)NCCOCCOCC(=O)NCCCCCCCCCCC(=O)O)NC(=O)[C@H](C(C)O)NC(=O)[C@H](C(C)C)NC(=O)[C@H](CC2CCCCC2)NC(=O)[C@H](CCN)NC1=O (stereo partly drawn) [Compound 3054] ({CH2CO}-HY(Carboxymethyl)DWV[Bip]V[Orn][dL][Dab][Cha]V[Thr(3ξ)]C[dA][AEEA][Aun]-OH; thioether N-14) |
| 13.7 | C#CC[C@H](NC(=O)COCCOCCNC(=O)[C@H](CCN)NC(=O)[C@@H]1CSCC(=O)N[C@@H](Cc2ccncc2)C(=O)N[C@@H](Cc2ccc(OCC(=O)O)cc2)C(=O)N[C@@H](CC(=O)O)C(=O)N[C@@H](Cc2c[nH]c3ccccc23)C(=O)N[C@@H](C(C)C)C(=O)N[C@@H](Cc2ccc(-c3ccccc3)cc2)C(=O)N[C@@H]([C@@H](C)CC)C(=O)N[C@@H](CCCN)C(=O)N[C@H](CC(C)C)C(=O)N[C@@H](CCN)C(=O)N[C@@H](CC(C)C)C(=O)N[C@@H](C(C)C)C(=O)N[C@@H]([C@@H](C)O)C(=O)N1)C(=O)N[C@@H](CCCN)C(=O)NCCCCCCCCCCC(=O)O [Compound 1195] ({CH2CO}-[4Pal]Y(Carboxymethyl)DWV[Bip]I[Orn][dL][Dab]LVTC[Dab][AEEA][Pra][Orn][Aun]-OH; thioether N-14) |
